By pEC50 is commonly meant the negative decadic logarithm of the EC50, by convention in mol/L. Low values mean a large EC50, high ones a small EC50.

pEC50: −log10 of the molar value.

The assay deals with AR / CBP ternary complex. Description: Ternary complex formation assay (sandwich ELISA, AR capture / CBP detection) in VCaP cell lysates. The assay is classed as cell-based. The settings on record: 1.5 hours treatment, sandwich ELISA (AR capture, CBP or p300 detection). How it is done:
Preparation of Mouse Anti-AR Antibody Coated 96 Well Plates
Black MaxiSorp plates: coat with 50 μL of mouse 1/50 diluted AR antibody (Monoclonal Antibody (AR 441 from Thermo Fisher); diluted in phosphate buffered saline (PBS). Spin the liquid to the bottom of the wells, if necessary. Incubate overnight at 4° C. Next day, wash 3 times with 200 μL of TBST. Block with 200 μL of blocking buffer (5% BSA in TBST) at room temperature for 2 hours (BSA: A4503 or A2153 from Sigma). Wash plates 3 times with TBST. Plates are ready for lysates Preparation of dimerizer treated lysates
Culture cells in 96 wells at 50K VCaP cells/well for at least 3 days. Plate in 5% Omega charcoal stripped FBS in total volume of 200 uL. Treat with bifunctional for 1.5 hours by adding 1 μL of 200× stock in DMSO. Aspirate media/compound. Add and pipet-to-mix 70 μL of 1× AlphaLisa Lysis Buffer to each well (Perkin Elmer, AlphaLISA SureFire Ultra, diluted in water). Pipet up and down when adding lysis buffer to disrupt cells. Let lysis proceed for 30 min at 4° C.
Incubate for 1 hour at room temperature. Flick out the lysates. Wash 3 times with TBST. Add 75 μL of rabbit CBP or p300 antibody to each well (diluted 1:5000 in blocking buffer (5% BSA in TBST). CBP antibody: (D6C5) Rabbit mAb #7389; p300 antibody: (D8Z4E) Rabbit mAb #86377. Incubate overnight at 4° C. Wash 3 times with 300 uL TBST, each time on shaker for 5-10 min. Prepare goat anti-rabbit antibody conjugated to HRP (1/100K dilution in blocking buffer) Invitrogen Catalog number: 32260. Add 75 μL of HRP-conjugated goat anti-rabbit antibody. Incubate at room temperature for 1 hour. Flick out the HRP-antibody mixture. Wash 7-8 times with TBST, each time on shaker for 10 min. Later washes try to overflow the wells so that no residual HRP remains bound to the sides of the well. Prepare and add 75 uL/well of QuantaRed Enhance Chemifluorescent HRP Substrate solution. Immediately read fluorescence on BMG ClarioStar (ex: 570/em 585), and repeat the read in 5 minutes and 15 minutes.
A general note: In an ELISA, binding on a coated surface is turned into a signal by an enzyme label.

In the case of `COc1cc(OC2C(C)(C)C(NC(=O)c3ccc(N4CC(N5CC6(CCC(n7nc(N8CCCc9cc(-c%10cnn(C)c%10)c(C(F)F)cc98)c8c7CCN(C(C)=O)C8)CC6)C5)C4)cc3)C2(C)C)ccc1C#N` (centres unmarked) [Compound 370, 4-[3-[7-[5-acetyl-3-[7-(difluoromethyl)-6-(1-methylpyrazol-4-yl)-3,4-dihydro-2H-quinolin-1-yl]-6,7-dihydro-4H-pyrazolo[4,3-c]pyridin-1-yl]-2-azaspiro[3.5]nonan-2-yl]azetidin-1-yl]-N-[3-(4-cyano-3-methoxy-phenoxy)-2,2,4,4-tetramethyl-cyclobutyl]benzamide], the pEC50 was more than 9.00.

`CC(=O)N1CCc2c(c(Nc3ccc(-c4cnn(C)c4)cc3F)nn2C2CCN(CCC3CCN(c4ncc(C(=O)NC5C(C)(C)C(Oc6ccc(C#N)c(Cl)c6)C5(C)C)cn4)CC3)C2)C1` (centres unmarked) [Compound 6, 2-[4-[2-[3-[5-acetyl-3-[2-fluoro-4-(1-methylpyrazol-4-yl)anilino]-6,7-dihydro-4H-pyrazolo[4,3-c]pyridin-1-yl]pyrrolidin-1-yl]ethyl]-1-piperidyl]-N-[3-(3-chloro-4-cyano-phenoxy)-2,2,4,4-tetramethyl-cyclobutyl]pyrimidine-5-carboxamide]: the pEC50 is less than 7.00.

Consider `COc1cc(OC2C(C)(C)C(NC(=O)c3cnc(N4CC5(CCC(N6CCC(n7nc(N8CCCc9cc(-c%10cnn(C)c%10)c(C)cc98)c8c7CCN(C(C)=O)C8)CC6)CC5)C4)nc3)C2(C)C)ccc1C#N` (centres unmarked) [Compound 469, 2-[7-[4-[5-acetyl-3-[7-methyl-6-(1-methylpyrazol-4-yl)-3,4-dihydro-2H-quinolin-1-yl]-6,7-dihydro-4H-pyrazolo[4,3-c]pyridin-1-yl]-1-piperidyl]-2-azaspiro [3.5]nonan-2-yl]-N-[3-(4-cyano-3-methoxy-phenoxy)-2,2,4,4-tetramethyl-cyclobutyl]pyrimidine-5-carboxamide], for which the pEC50 is more than 9.00.

`CC(=O)N1CCc2c(c(N3CCCc4cc(-c5cn(C)cn5)c(C(F)F)cc43)nn2C2CCN(CC3C(C)CN(c4ncc(C(=O)NC5C(C)(C)C(Oc6ccc(C#N)c(Cl)c6)C5(C)C)cn4)CC3C)CC2)C1` (centres unmarked) [Compound 425, 2-[4-[[4-[5-acetyl-3-[7-(difluoromethyl)-6-(1-methylimidazol-4-yl)-3,4-dihydro-2H-quinolin-1-yl]-6,7-dihydro-4H-pyrazolo[4,3-c]pyridin-1-yl]-1-piperidyl]methyl]-3,5-dimethyl-1-piperidyl]-N-[3-(3-chloro-4-cyano-phenoxy)-2,2,4,4-tetramethyl-cyclobutyl]pyrimidine-5-carboxamide] showed a pEC50 of more than 9.00.

Take `CC(=O)N1CCc2c(c(-c3cccc4cc(-c5cnn(CCOC6CCN(c7ncc(C(=O)NC8C(C)(C)C(Oc9ccc(C#N)c(Cl)c9)C8(C)C)cn7)CC6)c5)ncc34)nn2C2CCOCC2)C1` (centres unmarked) [Compound 138, 2-[4-[2-[4-[8-(5-acetyl-1-tetrahydropyran-4-yl-6,7-dihydro-4H-pyrazolo[4,3-c]pyridin-3-yl)-3-isoquinolyl]pyrazol-1-yl]ethoxy]-1-piperidyl]-N-[3-(3-chloro-4-cyano-phenoxy)-2,2,4,4-tetramethyl-cyclobutyl]pyrimidine-5-carboxamide]: the pEC50 is more than 9.00.

As to `COc1cc(OC2C(C)(C)C(NC(=O)c3ccc(N4CC(C)C(CN5CCC(n6nc(N7CCCc8cc(C#N)c(C)cc87)c7c6CCN(C(C)=O)C7)CC5)C(C)C4)cc3)C2(C)C)ccc1C#N` (centres unmarked) [Compound 457, 4-[4-[[4-[5-acetyl-3-(6-cyano-7-methyl-3,4-dihydro-2H-quinolin-1-yl)-6,7-dihydro-4H-pyrazolo[4,3-c]pyridin-1-yl]-1-piperidyl]methyl]-3,5-dimethyl-1-piperidyl]-N-[3-(4-cyano-3-methoxy-phenoxy)-2,2,4,4-tetramethyl-cyclobutyl]benzamide], the pEC50 is more than 9.00.

As to `COc1cc(OC2C(C)(C)C(NC(=O)c3ccc(N4CCC5(CC4)CC(Oc4ccc(-c6cc7c(cc6C(F)F)N(c6nn(C8CCOCC8)c8c6CN(C(C)=O)CC8)CCC7)cc4)C5)cc3)C2(C)C)ccc1C#N` (centres unmarked) [Compound 307, 4-[2-[4-[1-(5-acetyl-1-tetrahydropyran-4-yl-6,7-dihydro-4H-pyrazolo[4,3-c]pyridin-3-yl)-7-(difluoromethyl)-3,4-dihydro-2H-quinolin-6-yl]phenoxy]-7-azaspiro[3.5]nonan-7-yl]-N-[3-(4-cyano-3-methoxy-phenoxy)-2,2,4,4-tetramethyl-cyclobutyl]benzamide], the pEC50 was 8.00 to 9.00.

As for `CC(=O)N1CCc2c(c(N3CCCc4cc(-c5cnn(C)c5)c(C(F)F)cc43)nn2C2CCC3(CC2)CCN(c2ncc(C(=O)NC4C(C)(C)C(Oc5ccc(C#N)c(Cl)c5)C4(C)C)cn2)C3)C1` (centres unmarked) [Compound 407, 2-[8-[5-acetyl-3-[7-(difluoromethyl)-6-(1-methylpyrazol-4-yl)-3,4-dihydro-2H-quinolin-1-yl]-6,7-dihydro-4H-pyrazolo[4,3-c]pyridin-1-yl]-2-azaspiro[4.5]decan-2-yl]-N-[3-(3-chloro-4-cyano-phenoxy)-2,2,4,4-tetramethyl-cyclobutyl]pyrimidine-5-carboxamide], the pEC50 is 7.00 to 8.00.

Compound `CC(=O)N1CCc2c(c(N3CCCc4cc(-c5cnn(C)c5)c(C(F)F)cc43)nn2C2CCC(COC3CCN(c4ncc(C(=O)NC5C(C)(C)C(Oc6ccc(C#N)c(Cl)c6)C5(C)C)cn4)CC3)CC2)C1` (centres unmarked) [Compound 173, 2-[4-[[4-[5-acetyl-3-[7-(difluoromethyl)-6-(1-methylpyrazol-4-yl)-3,4-dihydro-2H-quinolin-1-yl]-6,7-dihydro-4H-pyrazolo[4,3-c]pyridin-1-yl]cyclohexyl]methoxy]-1-piperidyl]-N-[3-(3-chloro-4-cyano-phenoxy)-2,2,4,4-tetramethyl-cyclobutyl]pyrimidine-5-carboxamide] showed a pEC50 of more than 9.00.

With `CC(=O)N1CCc2c(c(-c3cccc4cc(-c5cnn(CC6CCN(c7ncc(C(=O)NC8C(C)(C)C(Oc9ccc(C#N)c(Cl)c9)C8(C)C)cn7)CC6)c5)ncc34)nn2C2CCOCC2)C1` (centres unmarked) [Compound 137, 2-[4-[[4-[8-(5-acetyl-1-tetrahydropyran-4-yl-6,7-dihydro-4H-pyrazolo[4,3-c]pyridin-3-yl)-3-isoquinolyl]pyrazol-1-yl]methyl]-1-piperidyl]-N-[3-(3-chloro-4-cyano-phenoxy)-2,2,4,4-tetramethyl-cyclobutyl]pyrimidine-5-carboxamide], the pEC50 was more than 9.00.

In turn, `CC(=O)N1CCc2c(c(N3CCCc4cc(-c5cnn(C)c5)c(C(F)F)cc43)nn2C2CCN(CC3CCN(c4ccc(C(=O)NC5C(C)(C)C(Oc6ccc(C#N)c(Cl)c6)C5(C)C)nn4)CC3)CC2)C1` (centres unmarked) [Compound 117, 6-[4-[[4-[5-acetyl-3-[7-(difluoromethyl)-6-(1-methylpyrazol-4-yl)-3,4-dihydro-2H-quinolin-1-yl]-6,7-dihydro-4H-pyrazolo[4,3-c]pyridin-1-yl]-1-piperidyl]methyl]-1-piperidyl]-N-[3-(3-chloro-4-cyano-phenoxy)-2,2,4,4-tetramethyl-cyclobutyl]pyridazine-3-carboxamide] showed a pEC50 of 8.00 to 9.00.
